Assay results as given in ChEMBL document CHEMBL5257102, “Enzymatic transformation of esculetin as a potent class of α-glucosidase inhibitors” (Bioorg Med Chem Lett, 2023).

Assays:
Format in all cases: protein assay
[1] = molecular target: T1, Alpha glucosidase (Homo sapiens, UniProt O43451+P10253+P14410+Q2M2H8); experiment: Inhibition of Alpha-glucosidase (unknown origin)
[2] = molecular target: T1, Alpha glucosidase; experiment: Inhibition of Alpha-glucosidase (unknown origin) by Lineweaver-Burk plot analysis; details: dose 4.0 µM
[3] = molecular target: T1, Alpha glucosidase; experiment: Competitive inhibition of Alpha-glucosidase (unknown origin) by Lineweaver-Burk plot analysis

Row | Structure (SMILES) | IC50 [1] | inhibition [2] | Ki [3]
1 | O=c1ccc2cc(O)c(O)cc2o1 [ESCULETIN] | > 500 µM |  | 
2 | O=c1ccc2c(Oc3cc4oc(=O)ccc4c(-c4c(O)c(O)c(-c5c(O)c(O)c(-c6c(O)c(O)cc7oc(=O)ccc67)c6ccc(=O)oc56)c5ccc(=O)oc45)c3O)c(O)c(O)cc2o1 | 0.7 µM | Dose-Dependent Effect | 0.2 µM
3 | O=c1ccc2c(-c3c(O)c(O)c(-c4c(O)c(O)cc5ccc(=O)oc45)c4oc(=O)ccc34)c(O)c(O)cc2o1 | 4.2 µM |  | 
4 | O=c1ccc2c(-c3c(O)c(O)cc4ccc(=O)oc34)c(O)c(O)cc2o1 | 17.6 µM |  | 10.1 µM
5 | O=c1ccc2c(-c3c(O)c(O)c(-c4c(O)c(O)cc5oc(=O)ccc45)c4oc(=O)ccc34)c(O)c(O)cc2o1 | 4.7 µM |  | 1.9 µM
6 | O=c1ccc2c(-c3c(O)c(O)c(-c4c(O)c(O)c(-c5c(O)c(O)cc6oc(=O)ccc56)c5oc(=O)ccc45)c4oc(=O)ccc34)c(O)c(O)cc2o1 | 2.3 µM |  | 0.9 µM
7 | O=c1ccc2cc(O)c(O)c(-c3c(O)c(O)cc4ccc(=O)oc34)c2o1 | 6.4 µM |  | 3.4 µM
